Measurements published in publication PMC5282547, “The Proline/Arginine Dipeptide from Hexanucleotide Repeat Expanded C9ORF72 Inhibits the Proteasome” (eNeuro, 2017).
Where two headings read alike, the source gives them in different places. Where no end group is shown, it is not given here.

What was measured:
phosphorylated AMPK = experiment: Immunoblot for mitochondrial dysfunction; assay type: cell-based, rat; conditions: 2 µM, 48 h, immunoblot normalized to actin
Protocol: (§1) All plates were incubated with PR20 for 48 h.

[1] = system: KDEL-tagged chaperones BiP and PDI; experiment: Immunoblot for ER stress; assay type: cell-based, rat; conditions: 2 µM, 48 h, immunoblot normalized to actin
Protocol: as §1

[2] = system: ubiquitin-proteasome system; experiment: MG-132 flux assay (flux of ubiquitylated substrates through the UPS); assay type: cell-based, rat
Protocol: MG-132 (Sigma) was used to inhibit proteasomal function. Cells were initially treated with PR20 for a total of 48 h using the method outlined in PR20 treatment for biochemical assays. Four hours prior to lysis, these cells were treated with MG-132 or vehicle. The MG-132 was kept in a stock solution in DMSO. This was added directly to culture to achieve a final concentration of 5 μM. Cells were then lysed in RIPA buffer and immunoblotted for ubiquitin.
Ubiquitin analysis requires the use of deubiquitinase (DUB) inhibitors. Lysis without these inhibitors runs the risk of degradation of the substrates to be targeted. As such, N-ethylmaleimide (Sigma), a potent DUB inhibitor, was used in the lysis buffer. […] The remainder of the lysis procedure follows Cell lysis.
To test for group differences in the flux assay, a permutation test was used. This is a nonparametric statistical test that was implemented in MATLAB. […] The test first quantifies this by taking the average of each experimental group and then finding the difference of ratios. It then permutes two samples located in two groups randomly, and determines that difference between averages again. This is repeated 50,000 times, and a histogram is plotted. This histogram represents the distribution of random noise in the sample. Since a higher difference in the +MG132/−MG132 ratio is a more “significant” result, the percentage of the random noise produced from 50,000 permutations that is higher in magnitude than the true difference (calculated from un-permuted data) is the p value.
Permutations of a data point in a +MG132 into a group labeled −MG132 (or vice versa) were not allowed. […] Thus, this group difference was not interesting to us.

Dendra2-LC3 = experiment: Autophagic flux assay, optical pulse labeling of Dendra2-LC3; assay type: cell-based, rat; conditions: 2 µM peptide, primary spinal neurons, single-cell optical pulse labeling
Protocol: (§2) Primary spinal neurons were dissected from E15 rat pups and cultured at a density of 2.5 × 10^5 cells/ml on a laminin/poly-lysine-coated 96-well plate in motor neuron media. Four days after plating, neurons were transfected with Lipofectamine 2000 (Invitrogen). DNA-Lipofectamine mixtures were incubated with neurons for 20 min followed by rinsing. Neurons were then placed in 100 µL of conditioned media that was collected immediately prior to transfection and half fresh motor neuron media containing 4 µM PR20, resulting in a final concentration of 2 µM PR20.
(§3) Optical pulse labeling experiments were performed using an automated microscopy platform previously described by [Arrasate et al. (2004)] and [Barmada et al. (2014)]. A Nikon Eclipse Ti inverted microscope equipped with a PerfectFocus system, 20× objective lens and an Andor iXon3 897 EMCCD camera were used to acquire images. Samples were illuminated with a Sutter Instruments Lamba XL lamp. The microscope and related components were encased in custom-built plexiglass enclosure set to maintain the temperature at 37°C and CO2 at 5%. Semrock GFP and TRITC filters were used for excitation and detection. A Semrock 405-nm long-pass filter was used for photoactivation. Image acquisition and stage movements were accomplished in an automated fashion using µManager and original code written in BeanShell. For all experiments, photoconversion occurred 24 h following transfection. GFP and TRITC images were acquired immediately following activation and subsequently every 2 h for 12 h. Images were acquired in a similar 12-h window starting 48 h after PR20 treatment. Using in-house image analysis scripts, neuronal cell bodies were identified based on their fluorescent intensity and morphology, and a ROI was drawn around the perimeter of each cell at each time. Single-cell TRITC intensity values were recorded and used to fit a first order exponential decay curve for individual neurons and calculate a Dendra2-light chain 3 (LC3) half-life for each cell. […]

Dendra2 = experiment: Optical pulse labeling of Dendra2; assay type: cell-based, rat; conditions: 2 µM peptide; vehicle 29.6 h; not significantly different from vehicle
Protocol: as §2, §3

[3] = system: purified affinity-purified human proteasomes; assay type: biochemical; conditions: for Δ0–5 of Ub-Sic1 signal compared with the no PR20 group: 20 nM Ub-Sic1, n = 3, p < 0.05
Protocol: Polyubiquitylated Sic1 proteins with PY degron motifs and T7 tag (Ub-Sic1) was prepared as previously described by [Choi et al. (2016)]. Different concentrations of PR20 peptides (0, 50, or 500 nM) and purified affinity-purified human proteasomes (5 nM) were preincubated 20 min in proteasome assay buffer [50 mM Tris-HCl (pH 7.5), 100 mM NaCl, 10% glycerol, 2 mM ATP, 10 mM MgCl2, and 1 mM DTT] on ice, and 20 nM reconstituted Ub-Sic1 was subsequently added. Degradation of Ub-Sic1 and PR20 peptides was monitored by immunoblotting using anti-T7 and anti-HA antibodies, respectively. Band intensities were quantified using ImageJ software (version 1.48k, NIH) from three independent immunoblotting assays (n = 3).

motor neurons = experiment: Motor neuron survival with IU1 co-treatment; assay type: cell-based, rat; conditions: PR20 treatment without IU1, 5 d
Protocol: Days in vitro (DIV)14 mixed spinal cord cultures were exposed to PR20 or GR20 by addition of synthetic peptide to the media one time. Cultures were fixed 5 d later with freshly prepared 4% paraformaldehyde for 20 min, washed extensively with 0.1 M PBS, pH 7.4, and immunostained with SMI32 to identify motor neurons. […] Motor neurons were counted in three nonoverlapping, randomly selected fields on a coverslip using a 5[times objective, and the values from a single coverslip averaged.
For experiments involving IU1, DIV14 cultures were treated with PR20 or its vehicle, and every other day, IU1 (or vehicle) was added to the culture media to achieve a final concentration of 5 µM. At DIV19, cultures were fixed and motor neuron number determined as described above.

human astrocytes = conditions: DPR applied repeatedly; ref Kwon et al. (2014); cited from earlier work
Text: We draw a number of conclusions from these experiments.

[4] = system: mixed spinal cord cultures; experiment: Cellular accumulation and disposal of HA-tagged DPR (immunoblot of cell lysates, continuous exposure or 2-h pulse-chase)
Protocol: Confluent dishes of astrocyte neuron cocultures at 37°C had volumes equalized to 2 ml of cell culture media each. Approximately 300 μl of media from each dish was removed and pooled with other dishes, PR20 stock solution was added, and the mixture was then added back to the corresponding culture dish, so that each dish contained a final concentration of 2 μM. All plates were incubated with PR20 for 48 h.
Lysis buffer was prepared containing 1% (v/v) protease inhibitor cocktail, 1% (v/v) PMSF, and 1% (v/v) leucine in 1% RIPA buffer solution on ice. Culture dishes were washed once with ice-cold PBS to remove any remaining media. A total of 125 μl (35-mm dish), 150 μl (6-well plate), or 250 μL (60-mm dish) of lysis buffer was added to each plate, and cells were scraped into a cold 1.5-ml tube. Samples were sonicated for 30 s at 20% intensity, placed on a rotator at 4°C for 20 min, and then centrifuged for 15 min at 13,200 rpm. Supernatant was then removed from each tube for further analysis.
We investigated the fate of PR20 in mixed spinal cord cultures through immunoblotting and immunocytochemistry. […] To gain further insight into the kinetics of the observed decrease in PR20 levels in cell lysates over time, we pulsed cells with 2 µM PR20 for 2 h, washed, replaced with fresh media (lacking PR20), and made cell lysates at regular intervals thereafter. […] To more easily follow GR20 by immunoblotting, we applied 10 µM GR20 to cultures and performed the same kinetic analysis as described in Figure 1D.

[5] = 2 µM in media, continuous exposure

In the case of “PRPRPRPRPRPRPRPRPRPRPRPRPRPRPRPRPRPRPRPRYPYDVPDYA [PR20]”, the “mitochondrial dysfunction (phosphorylated AMPK) versus vehicle” value (phosphorylated AMPK) is reported as “no statistically significant differences”, the “ER stress (BiP and PDI abundance) versus vehicle” value [1] is reported as “no statistically significant differences” and the “proteasomal flux versus vehicle after 2 h of exposure” value ([2]; 2 h PR20, ±MG132, n = 6 per group, p = 0.38) is reported as “no statistically significance”. For the same sequence, the “proteasomal flux (difference in ubiquitin +/- MG-132) versus vehicle” value ([2]; peptide 48 h (PR20 2 µM), then MG-132 5 µM or vehicle 4 h, permutation test) was “reduced”, the “extension of Dendra2-LC3 half-life compared with control” value (Dendra2-LC3) was ~5.6 h and the Dendra2 half-life (Dendra2) was 30.5 h. The “degradation of the peptide by purified 26S proteasomes” value ([3]; 0, 5 and 15 min, anti-HA immunoblot, pH 7.5 assay buffer with ATP) was “not itself degraded”, the “Δ0–5 of Ub-Sic1 signal compared with the no PR20 group” value ([3]; 1:10 proteasomes:PR20 (5 nM proteasomes, 50 nM PR20)) was “statistically significant less” and the “Δ0–15 of Ub-Sic1 signal compared with the no PR20 group” value ([3]; 1:10 proteasomes:PR20, n = 3, p < 0.05) was “statistically significantly less”. The “Δ0–5 of Ub-Sic1 signal compared with the no PR20 group” value ([3]; 1:100 proteasomes:PR20 (5 nM proteasomes, 500 nM PR20)) was “statistically significant less”, the “Δ0–15 of Ub-Sic1 signal compared with the no PR20 group” value ([3]; 1:100 proteasomes:PR20, n = 3, p < 0.05) was “statistically significantly less” and the “loss of motor neurons” value (motor neurons) was “approximately 50%”. For the same sequence, the “LD50 that kills human astrocytes” value (human astrocytes) was 8.4 µM, the “time of maximum immunoblot signal in cell lysates” value [4, 5] was 1.0 to 2.0 h and the “time point at which immunoblot signal is undetectable” value [4, 5] was 48 h. For the same sequence, the “time at which peptide is first detectable in cell lysates” value ([4]; 2 µM in media, continuous exposure, anti-HA immunoblot) was “approximately 0.5 h”, the “decrement in peptide abundance with versus without bafilomycin A1 in the chase media” value ([4]; 2-h pulse with 2 µM, chase with Baf A1 400 nM) was “the same” and the “loss of peptide with MG132 versus vehicle in the chase media” value ([4]; 2-h pulse with 2 µM, chase with MG132 5 µM) was “indistinguishable”. For the same sequence, the “lysate fractions with detectable Western blot signal at the 2-h time point” value ([4]; 2-h pulse-chase, 2 µM) was “soluble and insoluble fractions”, the “time point by which signal diminishes to a barely detectable level” value ([4]; 2-h pulse-chase, 2 µM) was 6 h and the “half-life of dipeptide in cells” value ([4]; immunoblot of mixed spinal cord culture lysates) was “on the orders of hours”.
